From PMC6222422, “Synthesis and Biological Evaluation of Novel Indole-Derived Thioureas” (Molecules : A Journal of Synthetic Chemistry and Natural …, 2018) come the findings set out here.

Broadly, the EC50 is the midpoint of the concentration-response curve. The melting point is the temperature of the solid-liquid transition.

The structures appear in SMILES notation. Where two headings read alike, the source gives them in different places. A value given as a limit tells only on which side of the number the result lay.

One data set deals with BVDV. The data set is described as follows: microbe, parasite or virus in culture. Format: cell-based, bovine viral diarrhoea virus. Particulars: for EC50: Bovine viral diarrhea virus isolates and strains, MDBK, in Bos taurus, read-out: BVDV EC50.
In another data set the test system is YFV. The data set is described as follows: microbe, parasite or virus in culture. Format: cell-based. Particulars: Yellow fever virus, BHK, read-out: YFV EC50.
The subject of another data set is CV-B5. The data set is described as follows: microbe, parasite or virus in culture. Format: cell-based, coxsackievirus B5. The note with it: Enterovirus B, CVB5, Vero 76, read-out: CV-B5 EC50.
A further data set relates to Sb-1. The data set is described as follows: microbe, parasite or virus in culture. Format: cell-based, poliovirus type-1. Particulars: Enterovirus C, Vero 76, read-out: Sb-1 EC50.
The test system of another data set is Reo-1. In words: microbe, parasite or virus in culture. Format: cell-based, reovirus type-1. The note with it: for EC50: Reovirus sp., BHK, read-out: Reo-1 EC50.
A further data set relates to RSV. In words: microbe, parasite or virus in culture. Format: cell-based, human respiratory syncytial virus. The note with it: for EC50: human respiratory syncytial virus, Vero 76, read-out: RSV EC50.
The next data set concerns VSV. In words: microbe, parasite or virus in culture. Format: cell-based. Particulars: Vesicular stomatitis virus, Vero 76, read-out: VSV EC50.
The test system of a further data set is VV. In words: microbe, parasite or virus in culture. Format: cell-based. The note with it: Orthopoxvirus vaccinia, Vero 76, read-out: VV EC50.
A further data set has as its system HSV-1. The data set is described as follows: microbe, parasite or virus in culture. Format: cell-based, human herpes 1. Particulars: Human alphaherpesvirus 1, Vero 76, read-out: HSV-1 EC50.
In data set [1] the test system is cell lines derived from human haematological tumours. The data set is described as follows: Cytotoxicity against cell lines derived from human haematological tumours, MTT. Format: cell-based. The note with it: CCRF-CEM, WIL-2NS, CCRF-SB, read-out: CC50 range over cell lines derived from human haematological tumours. The procedure:
Cell lines derived from human haematological tumours [CD4+ human acute T-lymphoblastic leukaemia (CCRF-CEM), human splenic B-lymphoblastoid cells (WIL-2NS), human acute B-lymphoblastic leukaemia (CCRF-SB)] were seeded at an initial density of 1 × 10^5 cells/mL in 96 well plates in RPMI-1640 medium supplemented with 10% foetal calf serum (FCS), 100 units/mL penicillin G and 100 μg/mL streptomycin. Cell viability was determined after 96 h at 37 °C by the MTT method. All cell cultures were then incubated at 37 °C in a humidified, 5% CO2 atmosphere, in the absence or presence of serial dilutions of test compounds in culture medium. Before dilutions, compounds were dissolved in DMSO at 100 mM.

Data set [2] can be described thus: in vitro. Particulars: human.
The nature of data set [3]: in vitro. The note with it: cattle (Bos taurus).
A short description of data set [4]: in vitro. Particulars: Syrian hamster (Mesocricetus auratus).
Data set [5] in a line: in vitro. Particulars: African green monkey (Cercopithecus aethiops).
Data set [6] deals with HIV-1. In words: microbe, parasite or virus in culture. Particulars: Human immunodeficiency virus 1, MT4, read-out: HIV-1 EC50.
A further data set has as its system CCRF-CEM. In words: Cytotoxicity against leukaemia/lymphoma cell lines, MTT. Particulars: Homo sapiens, 96 h, read-out: CC50 CCRF-CEM.
A further data set has as its system WIL-2NS. Described as above. The note with it: Homo sapiens, WIL2-NS, 96 h, read-out: CC50 WIL-2NS.
The next data set has as its system CCRF-SB. The description is as above. The note with it: Homo sapiens, 96 h, read-out: CC50 CCRF-SB.
Data set [7] concerns HIV-1 N119 (Y181C mutant). In words: microbe, parasite or virus in culture. Format: cell-based, Human Immunodeficiency Virus type-1. The note with it: read-out: EC50 N119.
Data set [8] relates to HIV-1 A17 (K103N + Y181C mutant). In words: microbe, parasite or virus in culture. The note with it: read-out: EC50 A17. Format: cell-based, Human Immunodeficiency Virus type-1.
For data set [9], the system named is HIV-1 EFV^R (K103R + V179D + P225H mutant). The data set is described as follows: microbe, parasite or virus in culture. The note with it: read-out: EC50 EFV^R. Format: cell-based, Human Immunodeficiency Virus type-1.
Data set [10] relates to HIV-1 AZT^R strain (67N, 70R, 215F, 219Q). In words: microbe, parasite or virus in culture. Format: cell-based, Human Immunodeficiency Virus type-1. The note with it: read-out: EC50 AZT^R.
Data set [11] relates to HIV-1 MDR strain (74V, 41L, 106A, 215Y). In words: microbe, parasite or virus in culture. Format: cell-based, Human Immunodeficiency Virus type-1. The note with it: read-out: EC50 MDR.
The test system of data set [12] is HIV-1. The note with it: read-out: EC50 HIV-1.
The subject of data set [13] is BHK cells. Particulars: Syrian hamster (Mesocricetus auratus).
The nature of data set [14]: Cytotoxicity, MTT method. Particulars: human. For orientation: Tetrazolium assays rely on reduction of a dye to a coloured formazan, in cell work by metabolically active cells.
The nature of data set [15]: Cytotoxicity, MTT method. Particulars: cattle (Bos taurus).
A short description of data set [16]: Cytotoxicity, MTT method. Particulars: Syrian hamster (Mesocricetus auratus).
The test system of data set [17] is BHK cells. The data set is described as follows: Cytotoxicity, MTT method. The note with it: read-out: BHK CC50; reduce the proliferation of mock-infected BHK cells by 50% (Table 6).
A short description of data set [18]: Cytotoxicity, MTT method. The note with it: African green monkey (Cercopithecus aethiops).

`S=C(NCCc1c[nH]c2ccccc12)Nc1ccc(I)cc1` [Compound 21, 1-(2-(1H-Indol-3-yl)ethyl)-3-(4-iodophenyl)thiourea]: the melting point was 162 to 165 °C. Further, the concentration giving a half-maximal response (EC50) in the data set with BVDV is greater than 100 µM. Also, the EC50 in the data set with YFV was greater than 11 µM. The concentration for a half-maximal effect (EC50) in the data set with CV-B5 was greater than 11 µM. In the data set on Sb-1, the EC50 is greater than 11 µM. Moreover, the EC50 in the data set with Reo-1 was greater than 11 µM. Also, the EC50 with RSV is greater than 11 µM. The EC50 in the data set on VSV was greater than 11 µM. Also, in the data set with VV, the EC50 is greater than 11 µM. Besides, the half-maximal effective concentration (EC50) in the data set on HSV-1 is greater than 11 µM. The CC50 in [1] lay in the range of 5 to 12 µM. For the same molecule, the CC50 in “in vitro [2]” worked out at 2.4 ± 0.2 µM. The molecule also gave a CC50 in the data set “in vitro [3]” greater than 100 µM. Also, the CC50 in the data set “in vitro [4]” was 11 µM. The molecule further yielded a CC50 in the data set “in vitro [5]” of 11 µM. The EC50 in the data set with HIV-1 [6] is greater than 2.4 µM. Moreover, in the data set with CCRF-CEM, the CC50 turned out to be 5 ± 0.8 µM. Besides, in the data set with WIL-2NS, the CC50 amounted to 5.8 ± 1 µM. In the data set with CCRF-SB, the CC50 is 12 ± 1.6 µM.

Take `Cc1cn([C@H]2C[C@H](N=[N+]=[N-])[C@@H](CO)O2)c(=O)[nH]c1=O` [AZT]: the EC50 turned out to be 0.025 ± 0.004 µM in [7]; 0.01 ± 0.001 µM in [8]; 0.02 ± 0.001 µM in data set [9]; 0.35 ± 0.04 µM in [10]; 0.08 ± 0.006 µM in [11]; 0.022 ± 0.004 µM in the data set on HIV-1 [12]. The same molecule had a CC50 in the data set on MT-4 cells of 45 µM.

Turning to `C=CCNC(=S)NCCc1c[nH]c2ccccc12` [Compound 18, 1-(2-(1H-Indol-3-yl)ethyl)-3-allylthiourea], the concentration giving a half-maximal response (EC50) in the data set with BVDV is greater than 100 µM; in the data set with YFV it was greater than 100 µM; in the data set on CV-B5, greater than 100 µM; with Sb-1 it was greater than 100 µM; in the data set on Reo-1, 61 µM; in the data set on RSV, greater than 100 µM. Moreover, the EC50 with VSV, in the data set with VV, in the data set on HSV-1 and in the data set with HIV-1 [6] was greater than 100 µM throughout. In addition, the “activity against Reo-1 (in words)” value in the data set on Reo-1 is recorded as “not particularly significant”. In addition, the CC50 in the data set on BHK cells [13], in the data set “in vitro [2]”, in the data set “in vitro [3]”, in “in vitro [4]” and in “in vitro [5]” was greater than 100 µM in each case.

`COc1cccc2c1C(=O)c1c(O)c3c(c(O)c1C2=O)C[C@@](O)(C(=O)CO)C[C@@H]3O[C@H]1C[C@H](N)[C@H](O)[C@H](C)O1` [Doxorubicin, reference compound]: the CC50 came out at 0.02 ± 0.002 µM in the data set with CCRF-CEM, 0.02 ± 0.003 µM with WIL-2NS and 0.03 ± 0.003 µM with CCRF-SB.

As for `CCNC(=S)NCCc1c[nH]c2ccccc12` [Compound 22, 1-(2-(1H-Indol-3-yl)ethyl)-3-ethylthiourea], the EC50 in the data set with BVDV, with YFV, in the data set on CV-B5, in the data set with Sb-1, with Reo-1 and with RSV was greater than 100 µM in each case. Moreover, the EC50 with VSV, in the data set on VV, with HSV-1 and in the data set on HIV-1 [6] was greater than 100 µM each time. Besides, the CC50 is greater than 100 µM in “Cytotoxicity, MTT method [14]”; greater than 100 µM in “Cytotoxicity, MTT method [15]”; greater than 100 µM in the data set “Cytotoxicity, MTT method [16]”; greater than 100 µM in the data set with BHK cells [17]; greater than 100 µM in the data set “Cytotoxicity, MTT method [18]”.

Consider `S=C(NCCc1ccccc1)NCCc1c[nH]c2ccccc12` [Compound 16, 1-(2-(1H-Indol-3-yl)ethyl)-3-phenethylthiourea], for which the “activity against BVDV (in words)” value in the data set on BVDV was “showed activity”. The EC50 in the data set with BVDV was 46 µM; in the data set with YFV, greater than 18 µM; with CV-B5, 18 ± 1.7 µM; in the data set on Sb-1 it was greater than 100 µM; with Reo-1 it was greater than 18 µM; in the data set on RSV, 30 ± 2.6 µM. Further, the EC50 was greater than 100 µM in the data set with VSV, greater than 100 µM in the data set on VV, greater than 100 µM with HSV-1 and greater than 49 µM in the data set with HIV-1 [6]. Also, in the data set on RSV, the “activity against RSV (in words)” value is “moderately active”. Besides, the “cytotoxicity for MDBK cell lines (in words)” value in the data set on MDBK cells is “lack of cytotoxicity”. Moreover, the CC50 in the data set “in vitro [2]” was 49 µM; in “in vitro [3]” it was greater than 100 µM; in “in vitro [4]”, 18 µM; in the data set “in vitro [5]”, greater than 100 µM.

Regarding `CCOC(=O)NC(=S)NCCc1c[nH]c2ccccc12` [Compound 20, 1-(2-(1H-Indol-3-yl)ethyl)-3-ethoxycarbonylthiourea], the “activity against BVDV (in words)” value in the data set with BVDV is given as “showed activity”. Further, the EC50 with BVDV is 35 ± 2.8 µM; in the data set on YFV, greater than 100 µM; in the data set with CV-B5, greater than 100 µM; in the data set with Sb-1, greater than 100 µM; in the data set with Reo-1, greater than 100 µM; with RSV, greater than 100 µM. For the same molecule, the 50% effective concentration (EC50) in the data set on VSV, with VV, in the data set on HSV-1 and in the data set with HIV-1 [6] was greater than 100 µM in each case. Besides, in the data set on MDBK cells, the “cytotoxicity for MDBK cell lines (in words)” value is “lack of cytotoxicity”. The CC50 in the data set with BHK cells [13], in the data set “in vitro [2]”, in “in vitro [3]”, in “in vitro [4]” and in the data set “in vitro [5]” was greater than 100 µM throughout.

Take `CNC(=S)NCCc1c[nH]c2ccccc12` [Compound 25, 1-(2-(1H-Indol-3-yl)ethyl)-3-methylthiourea]: the EC50 with BVDV, in the data set with YFV, in the data set on CV-B5, in the data set with Sb-1, in the data set with Reo-1 and in the data set on RSV was greater than 100 µM in each case. In addition, the EC50 in the data set with VSV, in the data set with VV, with HSV-1 and with HIV-1 [6] was greater than 100 µM each time. For the same molecule, the CC50 was greater than 100 µM in “Cytotoxicity, MTT method [14]”; greater than 100 µM in “Cytotoxicity, MTT method [15]”; greater than 100 µM in the data set “Cytotoxicity, MTT method [16]”; greater than 100 µM in the data set on BHK cells [17]; greater than 100 µM in “Cytotoxicity, MTT method [18]”.
